Laboratory results as given in patent publication US20090209536A1, “AMINOQUINAZOLINE CANNABINOID RECEPTOR MODULATORS FOR TREATMENT OF DISEASE” (KALYPSYS, INC., priority 2007, published 2009).
Like-named read-outs stand apart in the source and are kept apart here.

Assays:
[1] = target: T1, human cannabinoid receptor type 2 (Homo sapiens, UniProt P34972); test: Human CB2 Radioligand Binding Assay; conditions: membranes from stably transfected CHO CB2 cells
T1 construct: expressed in transfected cells; membrane preparation
Description: 1. Human CB2 Radioligand Binding Assay
This receptor binding filtration assay measures the receptor-ligand interactions of compounds by measuring ability to compete with a radiolabeled control ligand. Reactions were performed in 96 deep-well plate (Costar 3961) with a final volume of 600 ul. Compounds were added to each well either in single point (10 uM final) or dose-response. Compounds were delivered in DMSO or further diluted in incubation buffer to a final assay DMSO concentration of 1%. Incubation buffer (50 mM Tris-HCl pH 7.4, 2.5 mM EGTA, 5 mM MgCl2, 5.0 mg/ml fatty acid free BSA) was added to each well. Following buffer addition, [^3H] CP-55,940 was added. Tritiated CP-55,940 (Perkin Elmer) was used at the Kd determined from prior saturation binding experiments conducted on each lot of membranes. Membrane preparations from stably transfected CHO CB2 cells were added and the reaction was incubated for 90 minutes at 30° C. Unifilter GF/C filtration plates (Perkin Elmer) were pre-wet with 0.05% polyethylenimine. Samples were transferred to Unifilter plates and separation of unbound radioligand was achieved using a vacuum manifold (Millipore). Following thorough washing with 5 ml/well ice-cold wash buffer (50 mM Tris-HCl pH 7.4, 2.5 mM EGTA, 5 mM MgCl2, 0.5 mg/ml fatty acid free BSA), filterplates were dried completely. Betaplate Scint Scintillation cocktail (25 ul, Perkin Elmer) was applied and plates were read using Microbeta Trilux (Wallac). Data analysis was performed in Spotfire. Activity of the positive control (100 nM CP-55,940) was set as 100% efficacy.
Stable recombinant Human CB2-CHO cell membranes were prepared as follows: Chinese Hamster Ovarian (CHO) cells stably expressing human cannabinoid receptor type 2 were grown to 90% confluence in 15×100 mm culture dishes under puromycin selection (5 ug/ml) Cells were harvested from culture flasks using a cell scraper, were washed once with cold phosphate-buffered saline (calcium and magnesium free) and pelleted by centrifugation at 400 g for 5 min at 4° C. Cell pellet was washed once with cold phosphate-buffered saline and centrifuged again at 400×g for 5 min at 4° C. The pellet was suspended in ice-cold lysis buffer (10 mM Tris-HCl, 0.1 mM EDTA, containing […], pH 7.5) and homogenized in a chilled 7 ml glass dounce homogenizer using 50 strokes. The homogenate was centrifuged at 400 g for 15 min at 4° C. The cloudy supernatant was collected and centrifuged at 41000 g for 30 min at 4° C. The resulting pellet was washed with ice-cold sucrose-free lysis buffer and centrifuged again at 41000 g for 30 min at 4° C. The membrane pellet was suspended in sucrose-free storage buffer (10 mm Tris-HCl, 0.1 mM EDTA, pH 7.5) to a concentration of 2-3 mg protein/ml. Aliquots were flash frozen in liquid nitrogen and stored at −80° C. Concentration was determined using Dc protein assay kit (Bio-Rad).

[2] = target: T2, human cannabinoid receptor type 1 (Homo sapiens, UniProt P21554); test: Human CB1 Radioligand Binding Assay (basis of selectivity, CB2 vs. CB1); conditions: CB1: HEK 293 EBNA cells expressing human CB1; CB2: CHO CB2 membranes
T2 construct: purchased Perkin Elmer RBHCB1M; host or cells: HEK 293 EBNA cells
Description: 2. Human CB1 Radioligand Binding Assay
The incubation buffer was composed of 50 mM Tris-HCl pH 7.4, 2.5 mM EDTA, 5 mM MgCl2, 5.0 mg/ml fatty acid free BSA and the wash buffer was composed of 50 mM Tris-HCl pH 7.4, 2.5 mM EDTA, 5 mM MgCl2, 0.5 mg/ml fatty acid free BSA.

[3] = competition with [3H] CP-55,940, read-out: CB2 Ligand Binding Asssay EC50

T2 sequence (P21554 whole entry): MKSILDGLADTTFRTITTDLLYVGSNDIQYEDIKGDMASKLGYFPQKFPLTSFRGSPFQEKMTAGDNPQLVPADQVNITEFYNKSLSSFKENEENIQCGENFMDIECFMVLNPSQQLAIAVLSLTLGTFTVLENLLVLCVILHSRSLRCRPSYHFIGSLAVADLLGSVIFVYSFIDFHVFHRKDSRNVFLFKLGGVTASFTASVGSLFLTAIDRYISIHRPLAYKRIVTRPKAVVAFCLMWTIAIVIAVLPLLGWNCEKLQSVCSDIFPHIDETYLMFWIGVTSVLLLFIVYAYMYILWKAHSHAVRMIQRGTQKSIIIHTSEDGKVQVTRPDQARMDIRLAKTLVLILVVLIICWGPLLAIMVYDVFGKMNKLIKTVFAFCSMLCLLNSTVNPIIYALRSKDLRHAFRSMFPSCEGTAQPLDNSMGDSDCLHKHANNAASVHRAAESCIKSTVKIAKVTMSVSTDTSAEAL
T1 sequence (P34972 whole entry): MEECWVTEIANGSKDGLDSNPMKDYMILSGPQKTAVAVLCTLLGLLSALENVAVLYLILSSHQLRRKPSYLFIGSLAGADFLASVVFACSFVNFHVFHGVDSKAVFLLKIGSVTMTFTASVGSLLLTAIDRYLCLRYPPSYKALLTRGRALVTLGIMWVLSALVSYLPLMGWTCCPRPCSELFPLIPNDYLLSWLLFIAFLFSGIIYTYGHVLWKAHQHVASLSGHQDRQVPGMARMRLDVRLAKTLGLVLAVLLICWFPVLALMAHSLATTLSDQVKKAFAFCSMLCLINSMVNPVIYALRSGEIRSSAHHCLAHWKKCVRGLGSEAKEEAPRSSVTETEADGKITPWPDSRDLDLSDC

| Structure (SMILES) | EC50 [1, 3] | Selectivity, CB2 vs. CB1 [2] | EC50 ([1]; CB2 Ligand Binding Asssay EC50, competition with [3H] CP-55,940) |
| --- | --- | --- | --- |
| CN1CCN(c2nc(CNS(=O)(=O)c3ccc4ccccc4c3)nc3ccccc23)CC1 [Example 6, N-((4-(4-methylpiperazin-1-yl)quinazolin-2-yl)methyl)naphthalene-2-sulfonamide] | > 1000 nM | + (+ indicates > 10−fold) | – |
| Fc1ccc(-c2nc(N3CCCCC3)c3ccccc3n2)cc1F [Example 15, 2-(3,4-difluorophenyl)-4-(piperidin-1-yl)quinazoline] | < 1000 nM | − (− indicates ≦ 10−fold) | – |
| Fc1ccccc1-c1nc(N2CCCC2)c2cc(Cl)ccc2n1 [Example 273, 6-Chloro-2-(2-fluorophenyl)-4-(pyrrolidin-1-yl)quinazoline] | < 1000 nM | − (− indicates ≦ 10−fold) | – |
| CN1CCN(c2nc(-c3ccc(C(C)(C)C)cc3)nc3ccccc23)CC1 [Example 109, 2-(4-tert-Butylphenyl)-4-(4-methylpiperazin-1-yl)quinazoline] | < 1000 nM | + (+ indicates > 10−fold) | – |
| O=S(=O)(NCc1nc(N2CCCC2)c2ccccc2n1)c1cccc2ccccc12 [Example 1, N-((4-(Pyrrolidin-1-yl)quinazolin-2-yl)methyl)naphthalene-1-sulfonamide] | < 1000 nM | + (+ indicates > 10−fold) | – |
| Clc1ccccc1-c1nc(NCC2CCCCC2)c2ccccc2n1 [Example 193, 2-(2-Chlorophenyl)-N-(cyclohexylmethyl)quinazolin-4-amine] | – | − (− indicates ≦ 10−fold) | > 1000 nM |
| COc1ccc2nc(C3CCCCC3)nc(N3CCCC3)c2c1 [Example 162, 2-Cyclohexyl-6-methoxy-4-(pyrrolidin-1-yl)quinazoline] | < 1000 nM | + (+ indicates > 10−fold) | – |
| Clc1ccc(-c2nc(N3CCc4ccccc4C3)c3ccccc3n2)cc1 [Example 123, 2-(4-Chlorophenyl)-4-(3,4-dihydro-1H-isoquinolin-2-yl)quinazoline] | > 1000 nM | − (− indicates ≦ 10−fold) | – |
| CCOC(=O)N1CCN(c2nc(-c3ccccc3F)nc3cccc(Cl)c23)CC1 [Example 238, Ethyl 4-(5-chloro-2-(2-fluorophenyl)quinazolin-4-yl)piperazine-1-carboxylate] | < 1000 nM | + (+ indicates > 10−fold) | – |
| CC(C)c1nc(N2CCCCC2)c2ccccc2n1 [Example 146, 2-Isopropyl-4-piperidin-1-ylquinazoline] | > 1000 nM | − (− indicates ≦ 10−fold) | – |
| CN(Cc1ccccc1)c1nc(-c2ccc(F)c(F)c2)nc2ccccc12 [Example 17, N-benzyl-2-(3,4-difluorophenyl)-N-methylquinazolin-4-amine] | > 1000 nM | − (− indicates ≦ 10−fold) | – |
| CCN(CC)C(=O)c1ccc2nc(-c3ccccc3Cl)nc(N3CCN(C)CC3)c2c1 [Example 311, 2-(2-Chlorophenyl)-N,N-diethyl-4-(4-methylpiperazin-1-yl)quinazoline-6-carboxamide] | < 1000 nM | + (+ indicates > 10−fold) | – |
| CN(c1ccc(C(C)(C)C)cc1)c1nc(-c2ccc(F)c(F)c2)nc2ccccc12 [Example 21, N-(4-tert-Butylphenyl)-2-(3,4-difluorophenyl)-N-methylquinazolin-4-amine] | > 1000 nM | − (− indicates ≦ 10−fold) | – |
| CC(C)(C)c1ccc(-c2nc(Nc3ccc(F)c(F)c3)c3ccccc3n2)cc1 [Example 117, 2-(4-tert-Butylphenyl)-N-(3,4-difluorophenyl)quinazolin-4-amine] | < 1000 nM | − (− indicates ≦ 10−fold) | – |
| FC(F)(F)c1ccc(-c2nc(N3CCCC3)c3ccccc3n2)cc1 [Example 45, 4-(Pyrrolidin-1-yl)-2-(4-(trifluoromethyl)phenyl)quinazoline] | < 1000 nM | + (+ indicates > 10−fold) | – |
| Clc1ccc(-c2nc(N3CCCC3)c3cc(Cl)ccc3n2)cc1 [Example 209, 6-Chloro-2-(4-chlorophenyl)-4-(pyrrolidin-1-yl)quinazoline] | > 1000 nM | − (− indicates ≦ 10−fold) | – |

Now from value to compound, other results behind:

| EC50 [1, 3] | Selectivity, CB2 vs. CB1 [2] | Structure (SMILES) | EC50 ([1]; CB2 Ligand Binding Asssay EC50, competition with [3H] CP-55,940) |
| --- | --- | --- | --- |
| > 1000 nM | − (− indicates ≦ 10−fold) | Cc1ccccc1Nc1nc(-c2ccccc2Cl)nc2ccccc12 [Example 331, 2-(2-Chlorophenyl)-N-o-tolylquinazolin-4-amine] | – |
| < 1000 nM | + (+ indicates > 10−fold) | COC(=O)c1sccc1S(=O)(=O)NCc1nc(N2CCCC2)c2ccccc2n1 [Example 7, Methyl 3-(N-((4-(Pyrrolidin-1-yl)quinazolin-2-yl)methyl)sulfamoyl)thiophene-2-carboxylate] | – |
| > 1000 nM | − (− indicates ≦ 10−fold) | c1ccc2c(N3CCCCC3)nc(C3CCCC3)nc2c1 [Example 136, 2-Cyclopentyl-4-piperidin-1-ylquinazoline] | – |
| > 1000 nM | − (− indicates ≦ 10−fold) | CN1CCN(c2nc(-c3ccc(Cl)cc3)nc3ccc(Cl)cc23)CC1 [Example 212, 6-Chloro-2-(4-chlorophenyl)-4-(4-methylpiperazin-1-yl)quinazoline] | – |
| > 1000 nM | − (− indicates ≦ 10−fold) | c1ccc(-c2nc(NCC3CC3)c3ccccc3n2)cc1 [Example 50, N-(Cyclopropylmethyl)-2-phenylquinazolin-4-amine] | – |
| < 1000 nM | + (+ indicates > 10−fold) | CCCC(=O)N1CCN(c2nc(-c3ccccc3Cl)nc3cccc(Cl)c23)CC1 [Example 232, 1-(4-(5-Chloro-2-(2-chlorophenyl)quinazolin-4-yl)piperazin-1-yl)butan-1-one] | – |
| > 1000 nM | − (− indicates ≦ 10−fold) | Clc1ccc(-c2nc(N3CCSCC3)c3cc(Cl)ccc3n2)cc1 [Example 211, 4-(6-Chloro-2-(4-chlorophenyl)quinazolin-4-yl)thiomorpholine] | – |
| > 1000 nM | − (− indicates ≦ 10−fold) | CC(=O)N1CCN(c2nc(-c3ccccc3Cl)nc3cc(C(=O)N4CCCCC4)ccc23)CC1 [Example 324, 1-(4-(2-(2-Chlorophenyl)-7-(piperidine-1-carbonyl)quinazolin-4-yl)piperazin-1-yl)ethanone] | – |
| < 1000 nM | − (− indicates ≦ 10−fold) | CCN1[C@H](C)CN(c2nc(-c3ccccc3Cl)nc3ccccc23)C[C@@H]1C [Example 80, 2-(2-Chlorophenyl)-4-((3S,5R)-4-ethyl-3,5-dimethylpiperazin-1-yl)quinazoline] | – |
| < 1000 nM | + (+ indicates > 10−fold) | Cc1cccc2nc(-c3ccccc3Cl)nc(N3CCCC3)c12 [Example 256, 2-(2-Chlorophenyl)-5-methyl-4-(pyrrolidin-1-yl)quinazoline] | – |
| < 1000 nM | + (+ indicates > 10−fold) | c1ccc2c(N3CCCC3)nc(C3CCCCC3)nc2c1 [Example 36, 2-Cyclohexyl-4-(pyrrolidin-1-yl)quinazolines] | – |
| > 1000 nM | − (− indicates ≦ 10−fold) | CCCS(=O)(=O)N1CCN(c2nc(-c3ccccc3Cl)nc3ccccc23)CC1 [Example 84, 2-(2-Chlorophenyl)-4-(4-(propylsulfonyl)piperazin-1-yl)quinazoline] | – |
| < 1000 nM | − (− indicates ≦ 10−fold) | CC(=O)N1CCCN(c2nc(-c3ccccc3Cl)nc3ccccc23)CC1 [Example 334, 1-(4-(2-(2-Chlorophenyl)quinazolin-4-yl)-1,4-diazepan-1-yl)ethanone] | – |
